Numbers after ± are expanded uncertainties.
What was measured:
[1] = Molar enthalpy of transition or fusion; details: Crystal; DSC
[2] = Crystal; DTA

SMILES: CC(=O)c1ccc(C)c2ccccc12 [1-(4-methyl-1-naphthyl) ethanone]
- Molar enthalpy of transition or fusion [1]: 3.47 ± 0.112 kcal/mol
- Normal melting temperature [2]: 312.00 ± 4 °C

— the NIST ThermoML archive (doi:10.1016/j.fluid.2009.10.015)
